# According to patent US9365583B2, “Substituted pyrazoles and uses thereof” (Genentech, Inc., priority 2013, dated 2016):
# Target: T1, N-terminally GST-tagged DLK (catalytic domain amino acid 1-520) (Homo sapiens, UniProt Q12852)
# T1 construct: N-terminally GST-tagged DLK (catalytic domain amino acid 1-520); purchased Carna Bioscience
# T1 sequence (Q12852 1-520): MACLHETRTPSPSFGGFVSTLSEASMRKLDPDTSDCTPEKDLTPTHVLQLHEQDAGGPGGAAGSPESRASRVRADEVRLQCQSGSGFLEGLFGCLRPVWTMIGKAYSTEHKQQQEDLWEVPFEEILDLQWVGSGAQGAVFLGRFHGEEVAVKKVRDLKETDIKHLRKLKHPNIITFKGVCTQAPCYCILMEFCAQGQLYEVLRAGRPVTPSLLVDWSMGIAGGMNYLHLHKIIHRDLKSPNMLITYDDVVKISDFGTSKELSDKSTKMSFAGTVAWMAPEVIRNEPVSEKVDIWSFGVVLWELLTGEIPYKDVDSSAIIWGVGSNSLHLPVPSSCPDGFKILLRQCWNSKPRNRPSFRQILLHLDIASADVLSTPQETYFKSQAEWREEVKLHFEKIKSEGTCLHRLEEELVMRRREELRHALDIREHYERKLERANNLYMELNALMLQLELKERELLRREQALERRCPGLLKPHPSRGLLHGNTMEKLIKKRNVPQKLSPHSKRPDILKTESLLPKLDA
# Experiment: DLK TR-FRET inhibition assay
# Assay type: biochemical
# Conditions: 5 nM GST-DLK, 40 nM HIS-MKK4 K131M substrate, 30 μM ATP, 60 minutes at ambient temperature
# Procedure, shortened: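 5 nM GST-DLK (aa 1-520), 40 nM HIS-MKK4 K131M and 30 μM ATP reacted 60 min at ambient temperature in HEPES pH 7.5 buffer with 10 mM MgCl2, compound 1:3 serially diluted from 20 uM. TR-FRET detection of phospho-MKK4 used Eu-cryptate anti-phospho-MKK4 plus D2 anti-HIS, read after 3 h (665/615 nm).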
row,Ki [nM],Compound
1,7.1,"Nc1ncc(-c2cc([C@H]3[C@@H]4C[C@H](N5CCCOCC5)C[C@@H]43)n(CC(F)F)n2)cc1C(F)(F)F [compound 136, 5-(5-((1R,3r,5S,6r)-3-(1,4-oxazepan-4-yl)bicyclo[3.1.0]hexan-6-yl)-1-(2,2-difluoroethyl)-1H-pyrazol-3-yl)-3-(trifluoromethyl) pyridin-2-amine]"
2,2.5,"CC(C)n1nc(-c2cnc(N)c(C(F)(F)F)c2)cc1[C@H]1[C@@H]2C[C@H](N3CCN(CC(F)F)CC3)C[C@@H]21 [compound 265, 5-(5-((1R,3r,5S,6r)-3-(4-(2,2-difluoroethyl)piperazin-1-yl)bicyclo[3.1.0]hexan-6-yl)-1-isopropyl-1H-pyrazol-3-yl)-3-(trifluoromethyl)pyridin-2-amine]"
3,1.3,"CC(C)n1nc(-c2cnc(N)c(OC(F)(F)F)c2)cc1[C@H]1[C@@H]2C[C@H](N3C[C@@H]4C[C@H]3CN4C)C[C@@H]21 [compound 201, 5-(1-isopropyl-5-((1R,3r,5S,6S)-3-((1S,4S)-5-methyl-2,5-diazabicyclo [2.2.1]heptan-2-yl)bicyclo [3.1.0]hexan-6-yl)-1H-pyrazol-3-yl)-3-(trifluoromethoxy) pyridin-2-amine]"
4,2,"CC(C)n1nc(-c2cnc(N)c(C(F)(F)F)c2)cc1[C@H]1[C@@H]2C[C@@H](N3CCCN(C)CC3)C[C@@H]21 [compound 210, 5-(1-isopropyl-5-((1R,3s,5S,6r)-3-(4-methyl-1,4-diazepan-1-yl)bicyclo[3.1.0]hexan-6-yl)-1H-pyrazol-3-yl)-3-(trifluoromethyl) pyridin-2-amine]"
5,1.3,"Nc1ncc(-c2cc([C@H]3[C@@H]4C[C@H](N5CCOCC5)C[C@@H]43)n(CC3CC3)n2)cc1C(F)(F)F [compound 273, 5-(1-(cyclopropylmethyl)-5-((1R,3r,5S,6r)-3-morpholinobicyclo [3.1.0]hexan-6-yl)-1H-pyrazol-3-yl)-3-(trifluoromethyl)pyridin-2-amine]"
6,2.37,"CC(C)n1nc(-c2cnc(N)c(C(F)(F)F)c2)cc1[C@H]1[C@@H]2C[C@@H](N3CC(F)C3)C[C@@H]21 [compound 37, 5-(5-((1R,3s,5S,6r)-3-(3-fluoro-azetidin-1-yl)bicyclo[3.1.0]hexan-6-yl)-1-isopropyl-1H-pyrazol-3-yl)-3-(trifluoromethyl)pyridin-2-amine]"
7,3.79,"Nc1ncc(-c2cc([C@H]3[C@@H]4C[C@H](N5CCOCC5)C[C@@H]43)n(CC(F)F)n2)cc1C(F)(F)F [compound 91, 5-(1-(2,2-difluoroethyl)-5-((1R,3r,5S,6r)-3-morpholinobicyclo [3.1.0]hexan-6-yl)-1H-pyrazol-3-yl)-3-(trifluoromethyl)pyridin-2-amine]"
8,4,"CC(C)n1nc(-c2cnc(N)c(C(F)(F)F)c2)cc1[C@H]1[C@@H]2C[C@@H](N3CCS(=O)(=O)CC3)C[C@@H]21 [compound 9, 4-((1R,3s,5S,6r)-6-(3-(6-amino-5-(trifluoromethyl)pyridin-3-yl)-1-isopropyl-1H-pyrazol-5-yl)bicyclo[3.1.0]hexan-3-yl)thio-morpholine 1,1-dioxide]"
9,2.9,"CC(C)n1nc(-c2cnc(N)c(C(F)(F)F)c2)cc1[C@H]1[C@@H]2C[C@@H](N(C)C)C[C@@H]21 [compound 189, 5-(5-((1R,3s,5S,6r)-3-(dimethylamino)bicyclo[3.1.0]hexan-6-yl)-1-isopropyl-1H-pyrazol-3-yl)-3-(trifluoromethyl)pyridin-2-amine]"
10,4.2,"CC(C)n1nc(-c2cnc(N)c(C(F)(F)F)c2)cc1[C@H]1[C@@H]2C[C@@H](N(C)CC3COC3)C[C@@H]21 [compound 21, 5-(1-isopropyl-5-((1R,3s,5S,6r)-3-(methyl(oxetan-3-ylmethyl)amino)bicyclo[3.1.0]hexan-6-yl)-1H-pyrazol-3-yl)-3-(trifluoromethyl) pyridin-2-amine]"
11,5.95,"CO[C@H]1CCN([C@@H]2C[C@@H]3[C@H](C2)[C@H]3c2cc(-c3cnc(N)c(C(F)(F)F)c3)nn2C(C)C)C1 [compound 90, (1-isopropyl-5-((1R,3s,5S,6S)-3-((S)-3-methoxypyrrolidin-1-yl)bicyclo[3.1.0]hexan-6-yl)-1H-pyrazol-3-yl)-3-(trifluoromethyl) pyridin-2-amine]"
12,5.06,"Nc1ncc(-c2cc([C@H]3[C@@H]4C[C@@H](N5CCOCC5)C[C@@H]43)n(CC3CCC3)n2)cc1OC(F)F [compound 128, 5-(1-(cyclobutylmethyl)-5-((1R, 3s,5S,6r)-3-morpholinobicyclo [3.1.0]hexan-6-yl)-1H-pyrazol-3-yl)-3-(difluoromethoxy)pyridin-2-amine]"
13,2.7,"CC(C)n1nc(-c2cnc(N)c(C(F)(F)F)c2)cc1[C@H]1[C@@H]2C[C@@H](N3CC4(CCCO4)C3)C[C@@H]21 [compound 222, 5-(5-((1R,3s,5S,6r)-3-(5-oxa-2-azaspiro[3.4]octan-2-yl)bicyclo [3.1.0]hexan-6-yl)-1-isopropyl-1H-pyrazol-3-yl)-3-(trifluoromethyl) pyridin-2-amine]"
14,8.2,"CC(C)n1nc(-c2cnc(N)c(C(F)(F)F)c2)cc1[C@H]1[C@@H]2C[C@@H](N3CCCC3=O)C[C@@H]21 [compound 44, 1-((1R,3s,5S,6r)-6-(3-(6-amino-5-(trifluoromethyl)pyridin-3-yl)-1-isopropyl-1H-pyrazol-5-yl)bicyclo[3.1.0]hexan-3-yl)pyrrolidin-2-one]"
15,5.4,"CC(C)n1nc(-c2cnc(N)c(C(F)(F)F)c2)cc1[C@H]1[C@@H]2C[C@H](N3C[C@H]4C[C@@H]3CO4)C[C@@H]21 [compound 55, 5-(5-((1R,3r,5S,6R)-3-((1R,4R)-2-oxa-5-azabicyclo[2.2.1]heptan-5-yl)bicyclo[3.1.0]hexan-6-yl)-1-isopropyl-1H-pyrazol-3-yl)-3-(trifluoromethyl)pyridin-2-amine]"
16,4.72,"CC(C)n1nc(-c2cnc(N)c(OC(F)(F)F)c2)cc1[C@H]1[C@@H]2C[C@H](N3CC(F)(F)C3)C[C@@H]21 [compound 53, 5-(5-((1R,3r,5S,6r)-3-(3,3-difluoro-azetidin-1-yl)bicyclo[3.1.0]hexan-6-yl)-1-isopropyl-1H-pyrazol-3-yl)-3-(trifluoromethoxy) pyridin-2-amine]"
17,2.17,"CC(C)n1nc(-c2cnc(N)c(C(F)(F)F)c2)cc1C1[C@H]2CC(N3CCOCC3)C[C@@H]12 (stereo partly drawn) [compound 76, 5-(1-isopropyl-5-((1R,3s,5S,6r)-3-morpholinobicyclo[3.1.0]hexan-6-yl)-1H-pyrazol-3-yl)-3-(trifluoromethyl)pyridin-2-amine]"
18,0.64,"CC(C)n1nc(-c2cnc(N)c(OC(F)F)c2)cc1[C@H]1[C@@H]2C[C@@H](N3CCCOCC3)C[C@@H]21 [compound 87, 5-(5-((1R,3s,5S,6r)-3-(1,4-oxazepan-4-yl)bicyclo[3.1.0]hexan-6-yl)-1-isopropyl-1H-pyrazol-3-yl)-3-(difluoromethoxy)pyridin-2-amine]"
19,8.61,"CC(C)n1nc(-c2cnc(N)c(C(F)(F)F)c2)cc1[C@H]1[C@@H]2C[C@H](n3cccn3)C[C@@H]21 [compound 111, 5-(5-((1R,3r,5S,6r)-3-(1H-pyrazol-1-yl)bicyclo[3.1.0]hexan-6-yl)-1-isopropyl-1H-pyrazol-3-yl)-3-(trifluoromethyl)pyridin-2-amine]"
